Test results as given in ChEMBL document CHEMBL1123209, “Dipole moment in relation to H2 receptor histamine antagonist activity for cimetidine analogues” (J Med Chem, 1986).

Key:
[1] = Partition coefficient (logD) (octanol/borax buffer); type: physicochemical
[2] = target: Histamine H2 receptor (Cavia porcellus) (UniProt P47747); experiment: Histamine H2 receptor blocking activity was determined in the isolated guinea pig right atrium against histamine stimulated tachycardia; type: tissue-based; conditions: Cardiac atrium
Chain of Histamine H2 receptor (Cavia porcellus) (P47747 whole entry): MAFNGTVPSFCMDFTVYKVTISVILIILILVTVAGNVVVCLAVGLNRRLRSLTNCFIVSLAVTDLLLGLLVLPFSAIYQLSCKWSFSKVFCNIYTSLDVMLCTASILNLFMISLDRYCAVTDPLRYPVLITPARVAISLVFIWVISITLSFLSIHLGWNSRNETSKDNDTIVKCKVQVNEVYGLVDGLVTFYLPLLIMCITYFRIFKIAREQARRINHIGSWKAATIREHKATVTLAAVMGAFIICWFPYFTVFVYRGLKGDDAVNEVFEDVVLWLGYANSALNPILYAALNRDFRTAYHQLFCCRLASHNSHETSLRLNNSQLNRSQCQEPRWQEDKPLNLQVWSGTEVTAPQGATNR

Which logD [1] does the source give for `C/N=C(\S)NCCSCc1[nH]cnc1C` [METIAMIDE] here?
The logD was 0.55.

For `Cc1[nH]cnc1CSCCNc1nccc(O)c1[N+](=O)[O-]`, which logD [1] is on record?
Its logD is -0.2.

What about the -Log KB [2] of the same compound?
The -Log KB was 6.44.

Which logD [1] does the source give for `Cc1[nH]cnc1CSCCNc1[nH]ccc1[N+](=O)[O-]` here?
Its logD is 1.04.

What about the -Log KB [2] of the same compound?
The -Log KB was 7.31.

Which logD [1] does the source give for `CN/C(=C/[N+](=O)[O-])NCCSCc1[nH]cnc1C` here?
The logD was -0.4.

And the -Log KB [2]?
The -Log KB was 5.85.

With `Cc1[nH]cnc1CSCCNc1cccc(O)n1` as the compound, how does the logD [1] read?
The logD was 0.79.

And the -Log KB [2]?
The -Log KB was under 4.

Which -Log KB [2] does the source give for `CNC(=S)NCCSCc1[nH]cnc1C` here?
The -Log KB was 6.04.

Which results are given for `Cc1[nH]cnc1CSCCNC1=NC(=O)CN1`?
logD [1]: -0.5; -Log KB [2]: 4.21

With `Cc1[nH]cnc1CSCCNc1ccnc(O)n1` as the compound, how does the logD [1] read?
Its logD is -0.4.

What about the -Log KB [2] of the same compound?
Its -Log KB is under 4.5.

With `Cc1[nH]cnc1CSCCNc1nccc(O)n1` as the compound, how does the logD [1] read?
The logD was 0.02.

What about the -Log KB [2] of the same compound?
Its -Log KB is 5.13.

What does the source list for `CNC(=O)NCCSCc1[nH]cnc1C`?
logD [1]: -0.06; -Log KB [2]: 4.69

For `CNC(=N[N+](=O)[O-])NCCSCc1nc[nH]c1C`, which logD [1] is on record?
The logD was 0.13.

What does the source list for `Cc1[nH]cnc1CSCCNc1cc(O)ccn1`?
logD [1]: 0.8; -Log KB [2]: 4.8

For `Cc1[nH]cnc1CSCCNC1=NCCS(=O)(=O)N1`, which logD [1] is on record?
Its logD is -0.74.

And the -Log KB [2]?
The -Log KB was 4.57.

For `C/N=C(/NCCSCc1[nH]cnc1C)N[N+](=O)[O-]`, which -Log KB [2] is on record?
Its -Log KB is 5.84.

With `C/N=c1\c(O)c(O)\c1=N\CCSCc1[nH]cnc1C` as the compound, how does the logD [1] read?
The logD was -0.08.

What about the -Log KB [2] of the same compound?
Its -Log KB is 4.23.

Which logD [1] does the source give for `Cc1[nH]cnc1CSCCNC1=C([N+](=O)[O-])CCN1` here?
Its logD is -0.87.

What about the -Log KB [2] of the same compound?
Its -Log KB is 6.31.
